The values that follow come from article PMC6660600, “Odorant Inhibition in Mosquito Olfaction” (iScience, 2019).

Each structure is given as a SMILES string.

Assay in all cases: voltage clamp of Xenopus oocytes
What all share (format): cell-based

Assay [1] concerns the target T1, CquiOR32-CquiOrco (Culex quinquefasciatus, UniProt A0A3S7SHH6).
T1 construct: gene OR32; full-length OR coexpressed with Orco in Xenopus oocytes; heteromeric ligand-gated cation channel; with Odorant receptor coreceptor Orco
T1 sequence (A0A3S7SHH6 1-397): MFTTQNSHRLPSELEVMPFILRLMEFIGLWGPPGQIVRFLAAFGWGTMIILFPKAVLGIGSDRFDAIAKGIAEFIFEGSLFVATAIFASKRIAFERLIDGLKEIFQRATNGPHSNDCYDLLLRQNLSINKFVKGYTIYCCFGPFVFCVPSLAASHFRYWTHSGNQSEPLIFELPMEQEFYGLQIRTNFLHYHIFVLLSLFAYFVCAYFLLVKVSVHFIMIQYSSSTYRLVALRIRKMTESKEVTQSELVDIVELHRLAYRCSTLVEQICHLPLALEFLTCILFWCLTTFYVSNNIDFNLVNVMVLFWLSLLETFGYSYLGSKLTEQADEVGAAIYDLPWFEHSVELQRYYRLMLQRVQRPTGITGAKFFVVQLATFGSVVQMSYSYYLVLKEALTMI
T1 sequence (Q309I4 1-480 partner): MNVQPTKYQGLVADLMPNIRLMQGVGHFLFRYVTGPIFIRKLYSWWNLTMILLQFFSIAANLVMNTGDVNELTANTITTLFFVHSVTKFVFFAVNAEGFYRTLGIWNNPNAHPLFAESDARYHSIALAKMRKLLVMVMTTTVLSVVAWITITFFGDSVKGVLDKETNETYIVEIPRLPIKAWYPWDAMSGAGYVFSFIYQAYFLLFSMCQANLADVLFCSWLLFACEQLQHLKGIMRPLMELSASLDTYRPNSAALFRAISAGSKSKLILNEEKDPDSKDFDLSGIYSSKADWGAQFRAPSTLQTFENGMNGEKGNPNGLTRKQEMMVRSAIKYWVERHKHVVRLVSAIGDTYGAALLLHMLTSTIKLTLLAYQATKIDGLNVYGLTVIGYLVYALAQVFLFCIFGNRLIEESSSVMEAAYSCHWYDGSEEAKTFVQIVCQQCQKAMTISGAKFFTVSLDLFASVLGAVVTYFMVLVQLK
As to conditions: agonist (inward current), absolute value, coexpressed with CquiOrco.

For assay [2], the target named is T1, CquiOR32-CquiOrco. As to conditions: agonist (inward current), dose-dependent, coexpressed with CquiOrco.
The target in assay [3] is T1, CquiOR32-CquiOrco. As to conditions: inhibitor (reverse current), coexpressed with CquiOrco.
Assay [4] deals with T2, CquiOrco (Culex quinquefasciatus, UniProt Q309I4).
T2 construct: full-length Orco expressed alone in Xenopus oocytes
T2 sequence (Q309I4 1-480): T1 sequence (Q309I4 1-480 partner)
As to conditions: Orco agonist; Orco expressed alone.

The target in assay [5] is T1, CquiOR32-CquiOrco. As to conditions: inhibitor (reverse current), absolute value, coexpressed with CquiOrco.

`CCC(C)=O` [2-butanone]: in assay [1], the “inward current at 1 mM” value worked out at 45 ± 7 nA.

`OCCc1ccccc1` [2-phenylethanol]: in assay [1], the “inward current at 1 mM” value is listed as 44 ± 9 nA.

As for `CC1=NCCS1` [2MT, 2-methyl-2-thiazoline], the inward current result in assay [2] (1 mM (Figure 1A)) was “various odorants, including cyclohexanone, methyl salicylate, and 2-methyl-2-thiazoline”.

Turning to `O=C1CCCCC1` [CYC, cyclohexanone], the inward current entry in assay [2] (1 mM (Figure 1A)) was “various odorants, including cyclohexanone, methyl salicylate, and 2-methyl-2-thiazoline”.

With `CCN(CC)C(=O)c1cccc(C)c1` [DEET], the reverse current result in assay [3] (1 mM (Figure 1A)) was “eucalyptol, fenchone, DEET, picaridin, IR3535, PMD, and other compounds generated currents in reverse direction”.

Consider `CC12CCC(CC1)C(C)(C)O2` [EUC, eucalyptol], for which the reverse current entry in assay [3] (dose-dependent, also reduces methyl salicylate response, proposed negative allosteric modulator) is recorded as “eucalyptol generated currents in the reverse direction”.

As to `CC12CCC(C1)C(C)(C)C2=O` (stereo not drawn) [FEN, fenchone], the reverse current result in assay [3] (1 mM (Figure 1A)) is “eucalyptol, fenchone, DEET, picaridin, IR3535, PMD, and other compounds generated currents in reverse direction”.

Turning to `COC(=O)c1ccccc1O` [MS, methyl salicylate], the inward current result in assay [2] was “Methyl salicylate elicited inward currents, and eucalyptol generated currents in the reverse direction”.

In the case of `CCc1ccc(NC(=O)CSc2nnc(-c3cccnc3)n2CC)cc1` [VUAA-1], in assay [4], the current entry was “Response of a CquiOrco-expressing oocyte to Orco agonist, VUAA-1, is displayed in an inset”.

Consider `CC(=O)c1ccccc1` [acetophenone], for which the “inward current at 1 mM” value in assay [1] turned out to be 58 ± 12 nA.

`COc1ccccc1O` [guaiacol]: the “inward current at 1 mM” value in assay [1] is listed as 101 ± 11 nA.

Regarding `CCC(C)OC(=O)N1CCCCC1CCO` (stereo not drawn) [picaridin], the reverse current entry in assay [3] (1 mM (Figure 1A)) was “eucalyptol, fenchone, DEET, picaridin, IR3535, PMD, and other compounds generated currents in reverse direction”.

On to `CC1=CCC(=C(C)C)CC1` [terpinolene], for which the “reverse current at 1 mM” value in assay [5] stood at 38 ± 8 nA.

Take `CC1=CC=C(C(C)C)CC1` [α-terpinene]: in assay [5], the “reverse current at 1 mM” value worked out at 43 ± 5 nA.

Turning to `CCC1CCC(=O)O1` (stereo not drawn) [γ-hexalactone], in assay [1], the “inward current at 1 mM” value is 115 ± 14 nA.
